Publication PMC7404261 (2020)

Legend:
[1] = system: dsDNA-G4 (DNA, duplex) CGGGAAAAGGCGCGCGGAAGGGGT/ACCCCTTCCGCGCGCCTTTTCCCG; test: ethidium bromide staining of nondenaturing gel; conditions: K+ (100 mM KCl annealing, 10 mM KCl gel); Tris/HCl pH 7.5 annealing; 1x TBE gel; 1 µg/mL EthBr after ThT staining
[2] = system: ssDNA-G4-Rv (DNA, single strand) ACCCCTTCCGCGCGCCTTTTCCCG; test: ethidium bromide staining of nondenaturing gel; conditions: K+ (100 mM KCl annealing, 10 mM KCl gel); Tris/HCl pH 7.5 annealing; 1x TBE gel; 1 µg/mL EthBr after ThT staining
[3] = system: ssDNA-G4-Fw (DNA, G4) CGGGAAAAGGCGCGCGGAAGGGGT; test: ThT staining of nondenaturing gel; conditions: K+ (100 mM KCl annealing, 10 mM KCl gel); Tris/HCl pH 7.5 annealing; 1x TBE gel; stained with 5 µM ThT
[4] = system: dsDNA-G4 (DNA, duplex) CGGGAAAAGGCGCGCGGAAGGGGT/ACCCCTTCCGCGCGCCTTTTCCCG; test: ThT staining of nondenaturing gel; conditions: K+ (100 mM KCl annealing, 10 mM KCl gel); Tris/HCl pH 7.5 annealing; 1x TBE gel; stained with 5 µM ThT
[5] = system: HpTYMS-G4-T-WC (DNA, hairpin) CCCTTTTCCGCGCGCCTTCCCCTTTTTGGGGAAGGCGCGCGGAAAAGGG; test: ThT staining of nondenaturing gel; conditions: K+ (100 mM KCl annealing, 10 mM KCl gel); Tris/HCl pH 7.5 annealing; 1x TBE gel; stained with 5 µM ThT
[6] = system: ssDNA-G4-Rv (DNA, single strand) ACCCCTTCCGCGCGCCTTTTCCCG; test: ThT staining of nondenaturing gel; conditions: K+ (100 mM KCl annealing, 10 mM KCl gel); Tris/HCl pH 7.5 annealing; 1x TBE gel; stained with 5 µM ThT
[7] = system: HpTYMS-G4-T (DNA, hairpin) GGGAAAAGGCGCGCGGAAGGGGTTTTTGGGGAAGGCGCGCGGAAAAGGG; test: ThT staining of nondenaturing gel; conditions: K+ (100 mM KCl annealing, 10 mM KCl gel); Tris/HCl pH 7.5 annealing; 1x TBE gel; stained with 5 µM ThT

Structure (SMILES)	binding [1]	binding [2]	binding [3]	binding [4]	binding [5]	binding [6]	binding [7]
CC[n+]1c(-c2ccccc2)c2cc(N)ccc2c2ccc(N)cc21	yes	yes	–	–	–	–	–
Cc1ccc2c(c1)sc(-c1ccc(N(C)C)cc1)[n+]2C	–	–	yes	no	yes	no	yes
